The record followed here is US20250049676A1, “ANTIMICROBIAL SYSTEM WITH INDOLE ALKALOID AND PHENOLIC ACID AND COMPOSITIONS COMPRISING THEM” (Conopco, Inc., d/b/a UNILEVER, priority 2021, published 2025).

Where two headings read alike, the source gives them in different places.

Assay [1] deals with Enterobacter gergoviae ATCC 33028. In words: Liquid broth assay (MIC and checkerboard), Enterobacter gergoviae. The assay is classed as cell-based. As to conditions: for MIC: Pluralibacter gergoviae, read-out: minimal inhibitory concentration (MIC); for concentration needed in combination to achieve the inhibitory effect: gramine with syringic acid, concentration of the named component in the mixture. The source says:
(§1) Naturally derived antimicrobial systems were made, as shown below by combining the indole alkaloid and phenolic acid. Two pools were set up and each pool contained 1 organism. The strains involved were Enterobacter gergoviae ATCC 33028 of the family Pluralibacter gergoviae, a Gram-negative and Aspergillus brasiliensis ATCC 16404. FIC test range was 16 times greater than the projected MIC for each sample.
(§2) The differing behaviors of inhibitory antimicrobials in isolation and mixtures have been widely explored using the concept of the Fractional Concentration and Fractional Inhibitory Concentration (FIC). See for instance JRW Lambert and R Lambert, J. Appl. Microbiol 95, 734 (2003); T. Jadavji, CG Prober and R Cheung, Antibacterial Agents and Chemotherapy 26, 91 (1984), and WO 2004/006876. MIC is the minimum inhibitory concentration a component prevents visible growth of a microbe. The FC and FIC parameters can be defined as follows:
(§3) FC (Component A)=Concentration of Component A tested in the mixture/MIC (Component A tested as a single active)
(§4) FIC (component a)=MIC (component a tested in the mixture)/MIC (component a tested as a single active)
(§5) The interactions between antimicrobials can be additive, synergistic or possibly antagonistic depending on whether the efficacy of the combination is equivalent to, greater than or less than that obtained for the same total concentration of the individual components when tested alone. These relationships can be expressed mathematically by summing the fractional MIC values for all the components present in the mixture to give the “fractional inhibitory index”:
(§6) Such that: • ΣFIC greater than 0.5 corresponds to indifferent, additive or antagonistic activity • ΣFIC less than or equal to 0.5 corresponds to synergistic activity
(§7) Liquid broth assays (MIC and checkerboard) were conducted to identify the minimum concentration(s) of individual and binary combinations of natural preservation materials. A modified methodology to ISO 20776-1:2006 was utilized for the screening as follows. Stock solutions of each preservation chemical at 200 ul/cell (or well) each and 100 ul of broth were created in separate 96-well plates. Each of the two-preservation chemical/broth mixes was then combined in a third 96 well plate at varying concentrations and then inoculated with 1-5×10^6 microorganisms and incubated at 30° C. for 24 hours, after which optical densities at OD600 nm were measured.

Assay [2] deals with Aspergillus brasiliensis ATCC 16404. The assay can be described thus: Liquid broth assay (MIC and checkerboard), Aspergillus brasiliensis. The assay is classed as cell-based. As to conditions: for MIC: Aspergillus brasiliensis; for concentration needed in combination to achieve the inhibitory effect: gramine with syringic acid, concentration of the named component in the mixture.
Description: as §1, §2, §3, §4, §5, §6, §7

As for `CN(C)Cc1c[nH]c2ccccc12` [Gramine, 1-(1H-Indol-3-yl)-N,N-dimethylmethanamine], the MIC in assay [1] (ATCC33028, component by itself, MIC = <25% growth vs positive control, 30° C., 24 hours, OD600) came out at 6.25 mg/mL; in assay [2] (ATCC16404, component by itself, MIC = <25% growth vs positive control, 30° C., 24 hours, OD600, read-out: MIC), 12.5 mg/mL. Further, the figures for the “concentration needed in combination to achieve the inhibitory effect” value in assay [1] and in assay [2] were 0.098 mg/mL and 1,563 mg/ml, respectively.

On to `COc1cc(C(=O)O)cc(OC)c1O` [Syringic Acid, 4-Hydroxy-3,5-dimethoxybenzoic acid], for which the MIC in assay [1] (ATCC33028, 24 h) was more than 50 mg/mL; in assay [2] (ATCC16404, 24 h) it was more than 50 mg/mL. The figures for the “concentration needed in combination to achieve the inhibitory effect” value in assay [1] and in assay [2] were 0.781 mg/mL and 6.25 mg/mL, respectively.
